# Literature values in patent publication US20230346696A1, “SPRAY DRIED LOW HYGROSCOPICITY ACTIVE POWDER COMPOSITIONS” (PHILIP MORRIS PRODUCTS S.A., priority 2020, published 2023).
# Conditions: 25° C.
structure (smiles),measurement,value
OC[C@H]1O[C@H](O[C@H]2O[C@H](CO)[C@@H](O)[C@H](O)[C@H]2O)[C@H](O)[C@@H](O)[C@@H]1O [trehalose],solubility,69 g/100 ml water
